ChEMBL document CHEMBL3774358 (Eur J Med Chem, 2016)

What was measured:
[1] = molecular target: Actin nucleation-promoting factor WASL (Rattus norvegicus, UniProt O08816); test: Inhibition of full-length rat N-WASP-induced Arp2/3 activation by fluorescence assay
[2] = Inhibition of GFP-tagged Xenopus laevis kinesin-5 microtubule gliding velocity by fluorescence assay

Sequence of Actin nucleation-promoting factor WASL (O08816 whole entry): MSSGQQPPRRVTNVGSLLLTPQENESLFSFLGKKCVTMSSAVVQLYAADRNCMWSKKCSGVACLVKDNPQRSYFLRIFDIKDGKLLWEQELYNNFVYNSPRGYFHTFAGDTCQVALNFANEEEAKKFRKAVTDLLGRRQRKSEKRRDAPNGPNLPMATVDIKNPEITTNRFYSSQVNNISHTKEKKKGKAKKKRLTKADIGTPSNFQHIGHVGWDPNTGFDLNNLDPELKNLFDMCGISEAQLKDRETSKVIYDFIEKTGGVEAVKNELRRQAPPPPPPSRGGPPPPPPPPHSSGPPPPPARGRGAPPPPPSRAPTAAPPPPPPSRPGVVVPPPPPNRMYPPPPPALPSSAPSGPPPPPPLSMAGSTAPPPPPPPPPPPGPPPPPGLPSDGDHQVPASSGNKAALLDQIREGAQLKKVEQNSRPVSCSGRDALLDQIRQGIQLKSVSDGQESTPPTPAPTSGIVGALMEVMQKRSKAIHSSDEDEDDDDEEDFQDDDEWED

SMILES	IC50 [1]	IC50 [2]
CN(C)C[C@@H](O)Cn1c2ccc(Br)cc2c2cc(Br)ccc21	3.44 µM	–
CCOC(=O)C1=C(C)NC(=S)NC1c1cccc(O)c1 (stereo not drawn) [MONASTROL]	–	14 µM
CN(C)C[C@H](O)Cn1c2ccc(Br)cc2c2cc(Br)ccc21 [WISKOSTATIN]	4.35 µM	–
